What all share (format): cell-based
Test [1] has as its target human TLR8 (Homo sapiens (Human), UniProt Q9NR97). Description: Human TLR8 assay (TLR8/NF-kB/SEAPorter HEK 293 Cell Line). The conditions noted are these: SEAP induction, overnight incubation at 37° C., 0.1% DMSO; read-out: TLR8 pEC50 (converted). The text has this: TLR8/NF-kB/SEAPorter™ HEK 293 Cell Line (Imgenex Corporation) is a stably co-transfected cell line which expresses full-length human TLR8 and the secreted alkaline phosphatase (SEAP) reporter gene under the transcriptional control of an NF-κB response element. TLR8 expression in this cell line has been tested by flow cytometry. Transfectants with stable expression were selected using the antibiotic blasticidin and geneticin. TLR signaling leads to the translocation of NF-κB and activation of the promoter results in expression of the SEAP gene. TLR8-specific activation was assessed by determining the level of SEAP produced following overnight incubation of the cells at 37° C. with the standard compound in the presence of 0.1% (v/v) dimethylsulfoxide (DMSO). Concentration dependent induction of SEAP production by compounds was expressed as the concentration of compound which produced half of the maximal level of SEAP induction for that compound (EC50).

Test [2] addresses human TLR7 (Homo sapiens (Human), UniProt Q9NYK1). Description: Human TLR7 assay (SEAP reporter in HEK293). The conditions noted are these: SEAP induction, overnight incubation at 37° C., 0.1% DMSO; read-out: TLR7 (pEC50) (converted). The text has this:
Recombinant human TLR7 was stably expressed in a HEK293 cell line already stably expressing the pNiFty2-SEAP reporter plasmid; integration of the reporter gene was maintained by selection with the antibiotic zeocin. The most common variant sequence of human TLR7 (represented by the EMBL sequence AF240467) was cloned into the mammalian cell expression vector pUNO and transfected into this reporter cell-line. Transfectants with stable expression were selected using the antibiotic blasticidin. In this reporter cell-line, expression of secreted alkaline phosphatase (SEAP) is controlled by an NFkB/ELAM-1 composite promoter comprising five NFkB sites combined with the proximal ELAM-1 promoter. TLR signaling leads to the translocation of NFkB and activation of the promoter results in expression of the SEAP gene. TLR7-specific activation was assessed by determining the level of SEAP produced following overnight incubation of the cells at 37° C. with the standard compound in the presence of 0.1% (v/v) dimethylsulfoxide (DMSO). Concentration dependent induction of SEAP production by compounds was expressed as the concentration of compound which produced half of the maximal level of SEAP induction for that compound (EC50).

The target of test [3] is hERG potassium channel (Homo sapiens (Human), UniProt Q12809). Description: hERG Analysis - Method 2 (QPATCH HT, CHO-hERG cells). As to conditions: half-maximal inhibition concentration, 22±2° C. The procedure: The hERG potassium current was measured in a hERG-stably-expressing Chinese hamster ovary K1 (CHO) cells. The experiments were performed using an automated planar patch-clamp system QPATCH HT (Sophion Bioscience A/S). The application of pressure for forming gigaseals and whole-cell patch clamp configuration were established using the QPATCH assay software. Patch-clamp experiments were performed in voltage-clamp mode and whole-cell currents were recorded from individual cells. The following stimulation protocol was applied to investigate the effects of compounds on hERG potassium channel: The membrane potential was held at −80 mV and repetitively (every 15 s) depolarized to +20 mV for 5 s after the pulse to −50 mV for 20 ms served to define the baseline, followed by repolarizing step to −50 mV for 5 s to evaluate of the tail current amplitude. Experiments were conducted at room temperature (22±2° C.).
hERG potassium channel, sequence (Q12809 whole entry): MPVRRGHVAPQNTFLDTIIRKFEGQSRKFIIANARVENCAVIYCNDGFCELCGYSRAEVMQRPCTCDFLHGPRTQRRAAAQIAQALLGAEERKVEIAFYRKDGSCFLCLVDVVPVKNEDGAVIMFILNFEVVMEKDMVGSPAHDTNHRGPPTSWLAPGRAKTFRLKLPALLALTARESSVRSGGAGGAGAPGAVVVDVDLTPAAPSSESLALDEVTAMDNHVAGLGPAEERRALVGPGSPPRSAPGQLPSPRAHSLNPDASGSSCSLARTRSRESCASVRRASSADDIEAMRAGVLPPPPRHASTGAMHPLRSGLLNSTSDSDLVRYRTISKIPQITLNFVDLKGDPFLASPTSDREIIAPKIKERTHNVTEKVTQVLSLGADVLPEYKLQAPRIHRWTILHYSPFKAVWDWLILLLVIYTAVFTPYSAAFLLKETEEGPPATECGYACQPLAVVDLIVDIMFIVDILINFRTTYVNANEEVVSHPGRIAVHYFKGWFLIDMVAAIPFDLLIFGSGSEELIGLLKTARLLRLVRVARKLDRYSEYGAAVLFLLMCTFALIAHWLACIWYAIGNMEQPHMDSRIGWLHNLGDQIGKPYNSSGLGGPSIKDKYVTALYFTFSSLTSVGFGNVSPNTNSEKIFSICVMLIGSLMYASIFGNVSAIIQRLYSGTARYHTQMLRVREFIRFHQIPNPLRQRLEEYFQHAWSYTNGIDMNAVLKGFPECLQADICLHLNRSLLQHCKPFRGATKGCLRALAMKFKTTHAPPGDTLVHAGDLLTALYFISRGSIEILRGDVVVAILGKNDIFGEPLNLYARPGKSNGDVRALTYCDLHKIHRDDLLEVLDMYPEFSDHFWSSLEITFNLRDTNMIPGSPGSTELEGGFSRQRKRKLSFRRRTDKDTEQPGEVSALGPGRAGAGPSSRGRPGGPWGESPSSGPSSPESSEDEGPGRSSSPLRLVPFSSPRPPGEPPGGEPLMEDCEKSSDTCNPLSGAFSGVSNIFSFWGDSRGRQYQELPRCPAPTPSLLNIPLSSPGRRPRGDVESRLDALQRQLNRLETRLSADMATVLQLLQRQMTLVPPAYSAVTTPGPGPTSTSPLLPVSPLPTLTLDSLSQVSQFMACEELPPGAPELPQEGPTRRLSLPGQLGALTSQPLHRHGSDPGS
Effects of compounds were determined from cumulative applications of increasing 4 concentrations and calculated as percent of blocked current. The data points were fitted with Hill equation to calculate half-maximal inhibition concentrations. The test solution includes: Extracellular solution (mM): 2 mM of CaCl2, 1 mM of MgCl2, 10 mM of HEPES, 4 mM of KCl, 145 mM of NaCl, and 10 mM of Glucose; and Intracellular solution (mM): 5.4 mM of CaCl2, 1.8 mM of MgCl2, 10 mM of HEPES, 31 mM of KOH, 10 mM of EGTA, 120 mM of KCl, and 4 mM of ATP.
In general terms: The hERG channel carries a current that helps repolarise heart muscle cells.

Test [4] deals with hERG ion channel (Homo sapiens (Human), UniProt Q12809). Description: hERG Analysis - Method 1 (IONWORKS HT, CHO-hERG cells). The conditions noted are these: ~21° C. How it is done: The hERG-expressing Chinese hamster ovary K1 (CHO) cells described by (Persson, Carlsson, Duker, & Jacobson, 2005) were grown to semi-confluence at 37° C. in a humidified environment (5% CO2) in F-12 Ham medium containing L-glutamine, 10% foetal calf serum (FCS) and 0.6 mg/mL hygromycin (all available from Sigma-Aldrich). Prior to use, the monolayer was washed using a pre-warmed (37° C.) 3 mL aliquot of Versene 1:5,000 (Invitrogen) After aspiration of this solution the flask was incubated at 37° C. in an incubator with a further 2 mL of Versene 1:5,000 for a period of 6 minutes. Cells were then detached from the bottom of the flask by gentle tapping and 10 mL of Dulbecco's Phosphate-Buffered Saline containing calcium (0.9 mM) and magnesium (0.5 mM) (PBS; Invitrogen) was then added to the flask and aspirated into a 15 mL centrifuge tube prior to centrifugation (50 g, for 4 mins). The resulting supernatant was discarded and the pellet gently re-suspended in 3 mL of PBS. A 0.5 mL aliquot of cell suspension was removed and the number of viable cells (based on trypan blue exclusion) was determined in an automated reader (Cedex; Innovatis) so that the cell re-suspension volume can be adjusted with PBS to give the desired final cell concentration. It is the cell concentration at this point in the assay that is quoted when referring to this parameter. CHO-Kv1.5 cells, which were used to adjust the voltage offset on IONWORKS™ HT, were maintained and prepared for use in the same way.
hERG ion channel, sequence (Q12809 whole entry): as above
The principles and operation of this device have been described by (Schroeder, Neagle, Trezise, & Worley, 2003). Briefly, the technology is based on a 384-well plate (PATCHPLATE™) in which a recording was attempted in each well by using suction to position and hold a cell on a small hole separating two isolated fluid chambers. Once sealing had taken place, the solution on the underside of the PATCHPLATE™ was changed to one containing amphotericin B. This permeablises the patch of cell membrane covering the hole in each well and, in effect, allowed a perforated, whole-cell patch clamp recording to be made.
A β-test IONWORKS™ HT from Essen Instrument was used. […] (˜21° C.), as follows. The reservoir in the “Buffer” position was loaded with 4 mL of PBS and that in the “Cells” position with the CHO-hERG cell suspension described above. A 96-well plate (V-bottom, Greiner Bio-one) containing the compounds to be tested (at 3-fold above their final test concentration) was placed in the “Plate 1” position and a PATCHPLATE™ was clamped into the PATCHPLATE™ station. […]

Some results are limits rather than exact numbers.

human TLR8, sequence (Q9NR97 27-1041): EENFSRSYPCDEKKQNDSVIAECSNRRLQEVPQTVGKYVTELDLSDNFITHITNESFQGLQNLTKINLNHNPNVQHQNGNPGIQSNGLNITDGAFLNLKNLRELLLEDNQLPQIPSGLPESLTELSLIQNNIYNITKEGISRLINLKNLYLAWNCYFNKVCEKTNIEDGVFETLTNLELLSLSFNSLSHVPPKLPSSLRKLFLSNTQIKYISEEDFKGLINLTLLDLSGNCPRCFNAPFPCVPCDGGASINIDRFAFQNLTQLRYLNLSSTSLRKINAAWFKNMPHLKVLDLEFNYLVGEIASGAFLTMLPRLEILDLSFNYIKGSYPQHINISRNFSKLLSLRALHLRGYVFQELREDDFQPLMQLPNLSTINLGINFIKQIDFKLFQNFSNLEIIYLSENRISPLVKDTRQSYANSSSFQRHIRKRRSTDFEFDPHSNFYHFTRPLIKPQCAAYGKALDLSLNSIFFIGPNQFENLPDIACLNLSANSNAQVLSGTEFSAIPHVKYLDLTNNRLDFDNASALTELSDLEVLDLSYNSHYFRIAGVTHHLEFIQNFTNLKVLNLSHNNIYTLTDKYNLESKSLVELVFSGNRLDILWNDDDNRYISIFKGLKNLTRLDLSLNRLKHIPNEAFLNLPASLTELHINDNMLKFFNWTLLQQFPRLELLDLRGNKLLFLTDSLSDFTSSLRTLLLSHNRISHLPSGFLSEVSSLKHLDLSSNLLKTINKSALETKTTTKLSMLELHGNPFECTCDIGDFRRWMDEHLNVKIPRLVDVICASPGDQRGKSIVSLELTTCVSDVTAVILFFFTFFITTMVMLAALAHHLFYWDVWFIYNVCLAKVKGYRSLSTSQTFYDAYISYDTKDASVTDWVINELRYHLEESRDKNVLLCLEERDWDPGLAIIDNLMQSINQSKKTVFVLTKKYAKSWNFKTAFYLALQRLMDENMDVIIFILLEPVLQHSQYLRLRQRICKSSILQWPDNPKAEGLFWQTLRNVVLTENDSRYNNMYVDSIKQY
human TLR7, sequence (Q9NYK1 27-1049): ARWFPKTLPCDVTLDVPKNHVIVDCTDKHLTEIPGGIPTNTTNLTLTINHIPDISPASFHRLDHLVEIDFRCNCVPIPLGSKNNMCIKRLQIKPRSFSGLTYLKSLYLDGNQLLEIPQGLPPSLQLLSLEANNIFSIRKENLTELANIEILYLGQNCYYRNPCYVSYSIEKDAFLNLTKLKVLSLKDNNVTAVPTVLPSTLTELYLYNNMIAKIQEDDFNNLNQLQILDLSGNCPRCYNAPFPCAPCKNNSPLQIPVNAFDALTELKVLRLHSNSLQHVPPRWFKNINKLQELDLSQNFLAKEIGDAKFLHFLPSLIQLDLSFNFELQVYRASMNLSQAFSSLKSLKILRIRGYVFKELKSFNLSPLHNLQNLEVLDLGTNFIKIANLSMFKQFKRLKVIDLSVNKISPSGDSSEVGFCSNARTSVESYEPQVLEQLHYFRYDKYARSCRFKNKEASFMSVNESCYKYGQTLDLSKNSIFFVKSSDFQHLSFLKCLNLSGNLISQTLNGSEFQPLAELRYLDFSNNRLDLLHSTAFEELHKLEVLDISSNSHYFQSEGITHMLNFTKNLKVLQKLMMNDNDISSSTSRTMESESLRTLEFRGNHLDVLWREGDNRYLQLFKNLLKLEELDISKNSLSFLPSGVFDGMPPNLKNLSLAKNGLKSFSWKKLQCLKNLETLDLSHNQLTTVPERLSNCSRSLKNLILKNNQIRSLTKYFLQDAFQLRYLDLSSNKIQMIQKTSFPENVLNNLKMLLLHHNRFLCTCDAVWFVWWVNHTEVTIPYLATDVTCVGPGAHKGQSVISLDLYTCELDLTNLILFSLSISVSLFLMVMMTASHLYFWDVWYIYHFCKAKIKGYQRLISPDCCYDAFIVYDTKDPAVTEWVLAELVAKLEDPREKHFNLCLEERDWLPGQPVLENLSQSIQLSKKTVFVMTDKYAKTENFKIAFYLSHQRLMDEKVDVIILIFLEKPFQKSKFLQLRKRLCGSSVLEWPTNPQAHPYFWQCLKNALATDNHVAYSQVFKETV

In the case of `CCC[C@@H](CCO)Nc1nc(N)nc(C)c1Cc1ccc(Cn2cncc2C(=O)O)cc1OC` [Example 14, (S)-1-(4-((2-amino-4-(1-hydroxyhexan-3-ylamino)-6-methylpyrimidin-5-yl)methyl)-3-methoxybenzyl)-1H-imidazole-5-carboxylic acid], the EC50 in test [1] is greater than 10 µM; in test [2] it was 2 µM.

By IC50 is commonly meant the concentration needed to halve the response being measured. A lower IC50 goes with inhibition by little substance. Regarding `CCC[C@@H](CCO)Nc1nc(N)nc(C)c1Cc1ccc(CN(CC(=O)O)C(C)=O)cc1OC` [Example 7, (S)-2-(N-(4-((2-amino-4-(1-hydroxyhexan-3-ylamino)-6-methylpyrimidin-5-yl)methyl)-3-methoxybenzyl)acetamido)acetic acid], the EC50 in test [1] is greater than 10 µM; in test [2] it was 0.251 µM. In test [3], this compound registered a concentration for half-maximal inhibition (IC50) greater than 10 µM.

Consider `CCC[C@@H](CCO)Nc1nc(N)nc(C)c1Cc1ccc(OCCCN(CC)CC(=O)O)cc1OC` [Example 11, (S)-2-((3-(4-((2-amino-4-(1-hydroxyhexan-3-ylamino)-6-methylpyrimidin-5-yl)methyl)-3-methoxyphenoxy)propyl)(ethyl)amino)acetic acid], for which the EC50 in test [1] was greater than 10 µM; in test [2], 0.2 µM.

For the compound `CCCCNc1nc(N)nc(C)c1Cc1ccc(CN(CC)CC(=O)O)cc1OC` [Example 2, 2-((4-((2-amino-4-(butylamino)-6-methylpyrimidin-5-yl)methyl)-3-methoxybenzyl) (ethyl)amino)acetic acid], the values for the EC50 in test [1] and in test [2] were greater than 10 µM and 0.794 µM, respectively. Besides, the 50% inhibitory concentration (IC50) in test [3] was greater than 10 µM.

Take `CCC[C@@H](CCO)Nc1nc(N)nc(C)c1Cc1ccc(CN(CCC(=O)O)CC(F)F)cc1OC` [Example 6, (S)-3-((4-((2-amino-4-(1-hydroxyhexan-3-ylamino)-6-methylpyrimidin-5-yl)methyl)-3-methoxybenzyl)(2,2-difluoroethyl)amino)propanoic acid]: the values for the half-inhibitory concentration (IC50) in test [4] and in test [3] were greater than 33 µM and greater than 10 µM, respectively. Also, the EC50 in test [1] was greater than 10 µM; in test [2], 0.251 µM.

Take `CCC[C@@H](CCO)Nc1nc(N)nc(C)c1Cc1ccc(OCCCN(CC(=O)O)CC(F)F)cc1OC` [Example 12, (S)-2-((3-(4-((2-amino-4-(l-hydroxyhexan-3-ylamino)-6-methylpyrimidin-5-yl)methyl)-3-methoxyphenoxy)propyl)(2,2-difluoroethyl)amino)acetic acid]: the EC50 in test [1] is greater than 10 µM; in test [2], 0.1 µM.

Regarding `CCC[C@@H](CCO)Nc1nc(N)nc(C)c1Cc1ccc(CN2CCC[C@@H]2C(=O)O)cc1OC` [Example 13, (R)-1-(4-((2-amino-4-((S)-1-hydroxyhexan-3-ylamino)-6-methylpyrimidin-5-yl)methyl)-3-methoxybenzyl)pyrrolidine-2-carboxylic acid], the EC50 in test [1] is greater than 10 µM; in test [2], 0.2 µM.

`CCC[C@@H](CCO)Nc1nc(N)nc(C)c1Cc1ccc(CN(CC)CCC(=O)O)cc1OC` [Example 5, (S)-3-((4-((2-amino-4-(1-hydroxyhexan-3-ylamino)-6-methylpyrimidin-5-yl)methyl)-3-methoxybenzyl)(ethyl)amino)propanoic acid]: the concentration for half-maximal inhibition (IC50) in test [4] was greater than 33 µM; in test [3] it was greater than 10 µM. The EC50 in test [1] was greater than 10 µM; in test [2], 0.0501 µM.

Turning to `CCC[C@@H](CCO)Nc1nc(N)nc(C)c1Cc1ccc(OCCCN(CC)CCC(=O)O)cc1OC` [Example 10, (S)-3-((3-(4-((2-amino-4-(1-hydroxyhexan-3-ylamino)-6-methylpyrimidin-5-yl)methyl)-3-methoxyphenoxy)propyl)(ethyl)amino)propanoic acid], the results for the EC50 in test [1] and in test [2] were greater than 10 µM and 0.251 µM, respectively.

As to `CCC[C@@H](CCO)Nc1nc(N)nc(C)c1Cc1ccc(OCCCN2CCC[C@@H]2C(=O)O)cc1OC` [Example 8, (R)-1-(3-(4-((2-amino-4-((S)-1-hydroxyhexan-3-ylamino)-6-methylpyrimidin-5-yl)methyl)-3-methoxyphenoxy)propyl)pyrrolidine-2-carboxylic acid], the results for the EC50 in test [1] and in test [2] were greater than 10 µM and 0.126 µM, respectively. The IC50 in test [3] was greater than 10 µM.

Regarding `CCC[C@@H](CCO)Nc1nc(N)nc(C)c1Cc1ccc(OCCCN2CCC[C@H]2C(=O)O)cc1OC` [Example 9, (S)-1-(3-(4-((2-amino-4-((S)-1-hydroxyhexan-3-ylamino)-6-methylpyrimidin-5-yl)methyl)-3-methoxyphenoxy)propyl)pyrrolidine-2-carboxylic acid], the values for the EC50 in test [1] and in test [2] were greater than 10 µM and 0.2 µM, respectively. The compound also had an IC50 in test [3] greater than 10 µM.

Source of the values: patent US10150743B2, “Carboxylic acid compounds” (priority 2012, dated 2018).
